Measurements as given in patent publication US20110046378A1, “Novel Imaging Agents for Detecting Neurological Dysfunction” (SIEMENS MEDICAL SOLUTIONS USA, INC., priority 2008, published 2011).
Like-named read-outs stand apart in the source and are kept apart here. Blank lines part the entries; values can stand above or below the compound they belong to.

Columns and labels:
[1] = molecular target: T1, Aβ 1-42 aggregates (Homo sapiens, UniProt P05067); conditions: read-out: Binding Affinity Ki; cited from earlier work
T1 construct: Aβ 1-42 aggregates
T1 sequence (P05067 672-713 limits assumed): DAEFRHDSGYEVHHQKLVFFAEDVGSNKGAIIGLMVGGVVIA

[2] = system: Amyloid (AD patient's brain slice); assay: Amyloid autoradiography staining of AD patient's brain slices, grey/white matter binding with wash protocols; parameters: species or system human; conditions: for Grey/white matter binding ratio using mild wash conditions: 30%/40%/20% EtOH:water; for order of (non-specific) white matter binding: AD brain slices; for amyloid autoradiography staining (ex vivo), qualitative: AD patient's brain / normal brain; for grey to white matter binding ratio: human AD brain slices, EtOH:water washes
Method: (§1) Ex Vivo Competition Assay Using Amyloid (AD patient's brain slice) Autoradiography Staining
A study was conducted to examine the grey to white matter binding ratios for 4 different tracers: CB-001, CB-003, FDDNP and F-PiB (FIG. 7 and FIG. 8). […] After the human brain slices from AD patients were incubated with a given tracer for 30 min, the slices were washed with various EtOH:water solutions in an attempt to optimize the grey-to white matter ratios (FIG. 9). The results were surprising and unexpected in view of previous work performed by other researchers. CB-001 has a slightly higher c Log P than FDDNP (3.8 vs 3.4) and would be expected to have poorer washout than FDDNP based on these values. […] More specifically, the white matter binding of FDDNP is several shades darker than CB-001's white matter binding, indicating low non-specific binding of CB-001.

[3] = molecular target: T2, Amyloid (AD patient's brain slice) (Homo sapiens, UniProt P05067); assay: IC50 determination with [18F]-PiB by ex vivo competition assay using autoradiography staining; type: binding; conditions: for blocking of [18F]-PiB tissue binding, qualitative: human AD brains
T2 construct: The brain slices were 20 um thick
T2 sequence (P05067 672-711 limits assumed): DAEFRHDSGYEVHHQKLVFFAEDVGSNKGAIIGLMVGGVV
From the text: as §1

[4] = MicroPET dynamic scan of rat brain after tail vein injection; type: in vivo, white Sprague-Dawley rat; conditions: 30 min dynamic scan
Method: A white Sprague-Dawley rat was injected via tail vein with ˜850 uCi AD-CB-001, formulated in 10% EtOH:water. A dynamic scan was conducted for 30 min on a R4 microPET scanner. The data was reconstructed using 1 min framing.

[5] = MicroPET imaging in WT and App mice; type: in vivo; conditions: for brain clearance / washout rate: WT and App mice brain, compared with [18F]PiB
[6] = system: Amyloid (AD brain slices); assay: [18F]-CB001 competition studies on AD brain slices; type: binding, human
[7] = molecular target: Aβ42 insoluble aggregates (Homo sapiens, UniProt P05067); assay: Surface plasmon resonance (Biacore) assay, Aβ42 insoluble aggregates; conditions: SPR; read-out: binding to insoluble aggregates
Aβ42 insoluble aggregates, sequence (P05067 672-713 limits assumed): as the sequence (P05067 672-713 limits assumed) above

[8] = molecular target: Aβ42 soluble aggregates (Homo sapiens, UniProt P05067); assay: Surface plasmon resonance (Biacore) assay, Aβ42 soluble aggregates; conditions: SPR; read-out: binding to soluble aggregates
Aβ42 soluble aggregates, sequence (P05067 672-713 limits assumed): as above

[9] = molecular target: Aβ fibrils; conditions: read-out: Binding Affinity Ki; cited from earlier work
[10] = 30 min incubation, PBS, PBS, 20 um AD brain slices
[11] = determination 1, vs [18F]-PiB, read-out: IC50 1
[12] = mean of determinations, vs [18F]-PiB, read-out: Average IC50

Structure (SMILES): CNc1ccc(/C=C2\Oc3ccc([125I])cc3C2=O)cc1 [Aurones]
Ki [1]: 1.24 nM

Grey/white matter binding ratio using mild wash conditions [2, 10]: Poor
Grey/white matter binding ratio using harsh FDDNP wash conditions ([2]; 30 min incubation, PBS, 70%/90%/70% EtOH:water, PBS, 20 um AD brain slices): Excellent
order of (non-specific) white matter binding [2]: FDDNP>CB001>[18F]-PiB>CB003
IC50 [3, 11]: 1000 nM
IC50 ([3]; determination 2, vs [18F]-PiB, read-out: IC50 2): 480 nM
IC50 [3, 12]: 740 nM
brain uptake, qualitative ([5]; App and WT mice, microPET): very good brain uptake
Structure (SMILES): FCCOc1ccc2c(c1)[nH]c1ccccc12 [CB-001, 2-(2-fluoroethoxy)-9H-carbazole]
amyloid autoradiography staining (ex vivo), qualitative [2]: good amyloid binding and little/no white matter binding
grey to white matter binding ratio ([2]; 30 min incubation): much better grey to white matter ratio compared to FDDNP
brain entry and washout, qualitative [4]: Within minutes, the tracer entered the rat brain and quickly washed out
plaque binding of the tracer in competition studies ([6]; AD brain slices): reversible plaque binding and competition with PiB, and little/no white matter binding
blocking of [18F]-CB001 staining ([6]; cold competitor, increasing concentrations): PiB appears to block tracer binding with the same strength as cold CB001

Grey/white matter binding ratio using mild wash conditions [2, 10]: Excellent
order of (non-specific) white matter binding [2]: FDDNP>CB001>[18F]-PiB>CB003
IC50 [3, 11]: 1100 nM
IC50 ([3]; determination 6, vs [18F]-PiB, read-out: IC50 6): 900 nM
IC50 ([3]; determination 13, vs [18F]-PiB, read-out: IC50 13): 920 nM
IC50 [3, 12]: 973 nM
Kd [7]: 9 nM
Kd [8]: 262 nM
brain clearance / washout rate [5]: faster washout rate than 18F-PiB
brain clearance / washout rate ([5]; listed as [18F]-CB003): much faster than with [18F]PiB
larger brain/muscle ratio of App mice compared to WT mice ([5]; microPET): up to 25%
Structure (SMILES): FCCOCCOCCOc1ccc2c(c1)[nH]c1ccccc12 [CB-003, 2-(2-(2-(2-fluoroethoxy)ethoxy)ethoxy)-9H-carbazole]
amyloid autoradiography staining (ex vivo), qualitative [2]: amyloid deposits were clearly visible in the grey matter with little white matter uptake
amyloid autoradiography staining (ex vivo), qualitative ([2]; listed as [18F]-CB003): clearly distinguishes between Alzheimer's and normal brains
grey to white matter binding ratio ([2]; 30 min incubation): excellent grey to white matter binding ratios
blocking of [18F]-PiB tissue binding, qualitative [3]: still competes with 18F-PiB for binding sites in human AD brains
blocking of [18F]-PiB tissue binding, qualitative ([3]; listed as CB003): concentration-dependent blocking of [18F]-PiB tissue binding

Structure (SMILES): CNc1ccc(-c2nc3ccc(O)cc3s2)cc1 [PiB, reference compound]
Ki [9]: 2.8 nM
